{"source": "patent US9617517B2", "about": "“Small chemical compound which promotes induction of differentiation of stem cells into insulin-producing cells and method for inducing differentiation of stem cells into insulin-producing cells using said small chemical compound” (NATIONAL UNIVERSITY CORPORATION KUMAMOTO UNIVERSITY, priority 2011, dated 2017)", "key": {"[1]": {"system": "mouse ES cells (Pdx1/GFP)", "assay": "Differentiation of mouse ES cells into insulin positive cells on nano fiber plate, immunostaining and quantitative image analysis", "format": "cell-based", "conditions": "for effect on differentiation into insulin-expressing cells: compound added d11-d17, insulin staining d17 (FIG. 4, 5, 7, 8, 10); for induction of the differentiation of stem cells into insulin-producing cells: similar separate experiments", "source_text": "Two ES cell lines, one expressing green fluorescent protein (GFP) under the control of insulin 1 promoter, designed ING (Higuchi Y., Shiraki N., Yamane K, Qin Z., Mochitate K., Araki K., Senokuchi K., Yamagata K., Hara M., Kume K., and Kume S., Synthesized basement membranes direct the differentiation of mouse embryonic stem cells into pancreatic lineages. J. Cell Science, 123, 2733-2742, 2010), and the other one expressing GFP under the control of Pdx1 promoter, designated SK7 (Shiraki N, Yoshida T, Araki K, et al. Guided differentiation of embryonic stem cells into Pdx1-expressing regional-specific definitive endoderm. Stem Cells. 2008; 26:874-885), were used. Both cell lines were maintained on mouse embryonic fibroblast (MEF) feeders in Glasgow minimum essential medium (Invitrogen) containing 1000 units/ml leukemia inhibitory factor (LIF; Chemicon), 15% Knocked-out Serum Replacement (KSR; Gibco), 1% fetal bovine serum (FBS; Hyclone), 100 μM nonessential amino acids (NEAA; Invitrogen), 2 mM L-glutamine (L-Gln; Invitrogen), 1 mM sodium pyruvate (Invitrogen), 50 units/ml penicillin and 50 μg/ml streptomycin (PS; Invitrogen) and 100 μM β-mercaptoethanol (β-ME; Sigma), as ES maintenance medium.\nFor the differentiation studies, ES cells were plated at 5,000 cells per well in Corning 96 well plate with Ultra-Web Synthetic Polyamine Surface (#3873XX1, Corning Coster, Cambridge, Miss.), and cultured. The cells were cultured in Dulbecco's Modified Eagle Medium (DMEM: Invitrogen, Glasgow, UK) containing 4500 mg/L glucose, supplemented with NEAA, L-Gln, PS, β-ME, 10 μg/ml insulin (Sigma-Aldrich), 5.5 μg/ml transferrin (Sigma-Aldrich), 6.7 pg/ml selenium (Sigma-Aldrich), and 0.25% Albmax (Invitrogen), 10 ng/mL recombinant human activin-A (R&D Systems, Minneapolis, Minn.), 5 ng/mL; recombinant human bFGF for 7 days (d1-d7) (I of FIG. 1). And then, the medium was changed to RPMI 1640 medium (Invitrogen) containing 2000 mg/L glucose (Sigma, St Louis, Mo.), 1 μM Retinoic acid (Sigma-Aldrich), 50 ng/ml Human Recombinant Fibroblast Growth Factor-10 (Peprotech, Rocky Hill, N.J.), B27 SUPPLEMENT (Invitrogen) and 0.25 μM 3-Keto-N-(aminoethyl-aminocaproyl-dihydrocinnamoyl) cyclopamine Shh Signaling Antagonist II (Calbiochem, San Diego, Calif.) on d7 to d11 (II of FIG. 1). Finally, the medium was switched to DMEM containing 1000 mg/L glucose supplemented with NEAA, L-Gln, PS, β-ME, 10 μg/ml insulin (Sigma-Aldrich), 5.5 μg/ml transferrin (Sigma-Aldrich), 6.7 pg/ml selenium (Sigma-Aldrich), 0.25% Albmax (Invitrogen) and 10 mM nicotinamide (Sigma-Aldrich) on d11 to d17 (III of FIG. 1). Media were replaced every 2 days with fresh medium and growth factors until d17.\nAll tested small chemical compounds were solved in dimethyl sulfoxide (DMSO) at given concentration. Compounds were added on d11, d13 and d15 in a medium. Final concentration of DMSO was adjusted at 1.0% in all experiments for compounds.\nAfter 17 days cell culture, cultured ES cells were fixed in 4% paraformaldehyde in PBS for 30 min at room temperature, and rinsed several times with PBS. Then, cells were incubated in the added diluted primary antibody in 20% Blocking One (Nacalai tesque, Tokyo, Japan) in PEST (0.1% Tween-20 in PBS) in a humidified chamber for overnight at 4° C. After washing the cells in PBST, cells were incubated with the secondary antibody in 20% Blocking One for 2 hr at room temperature in dark. After washing off the secondary antibody in PBST, cells were counterstained with […] (DAPI) (Roche Diagnostics). The following antibodies were used as First antibodies: Rabbit anti-GFP (MBL International Corp., Woburn, Mass.), Mouse anti-Insulin (Sigma). The following antibodies were used as Secondary antibodies: Alexa 568-conjugated, Alexa 488-conjugated antibodies (Invitrogen) Cells were counterstained with DAPI (Roche Diagnotics, Basel, Switzerland)."}, "[2]": {"system": "Drd2KD cells", "assay": "Differentiation into insulin-producing cells in dopamine D2 receptor knock-down cell line", "format": "cell-based, mouse", "conditions": "0.63 μM reserpine, Drd2KD cells (FIG. 9B)", "method": "In the Vmat2-knockdown and Drd2-knockdown assays, Expression Arrest non-silencing control shRNA (Open Biosystems, #RHS4080), Vmat2 hRNA (Open Biosystems, #RMM3981-97058457 and #RMM3981-97058458) or Drd2 hRNA (Open Biosystems, #RMM3981-9594258) lentiviral vectors were used. For virus preparation, HEK293-FT cells (Invitrogen) were seeded on a plate medium the day before transfection. After overnight culture, the cells were transfected with lentiviral vectors and ViraPower™ Lentiviral Packaging Mix (Invitrogen) using FuGENE6 Transfection Reagent (Roche) according to the manufacturer's protocol. Cells were incubated in the ES maintenance medium for 24 hours, and viral supernatants were collected. Then, SK7 cells were infected with the viral supernatants. After incubation for 24 hours, the virus-containing medium was replaced with fresh ES maintenance medium. Further 24 hours later, the infected cells were selected using […] puromycin. The surviving cells were cloned as a knockdown-cell lines.\nTo confirm that a dopamine signal suppresses the differentiation into insulin-expressing cells through activation of its receptor, a dopamine D2 receptor knock-down cell line, Drd2KD was established (FIG. 9A)."}, "[3]": {"system": "differentiated ES cells", "assay": "Secreted insulin and cellular insulin content by mouse c-peptide ELISA", "format": "cell-based", "conditions": "TBZ 2.5 μM, dBu-cAMP 0.6 μM, day 11 to 17; sorted GFP positive cells day 17 (FIG. 18D)"}, "[4]": {"system": "Ngn3/GFP mouse ES cells", "assay": "Ngn3 positive cell inducing rate", "format": "cell-based", "method": "The influence exerted on the Ngn3 positive cell inducing rate by addition of TBZ (2.5 μM) or dBu-cAMP (0.6 μM) was confirmed. FIG. 16A is a view schematically showing the addition periods of TBZ or dBu-cAMP, and the addition periods are a) on days 9 to 11 of culture, b) on days 11 to 13 of culture, and c) on days 9 to 13 of culture.\nFirst, the compound was not added or TBZ was added on days 9 to 13 of culture (period c), and visible light photographs and fluorescence of Ngn3/GFP mouse ES cells were observed on day 13 of culture. The left one is a visible light photograph and the right one is fluorescence.\nNext, the compound was not added, or TBZ or dBu-cAMP was added under the above-described conditions a), b) and c), and the proportion of GFP positive cells on day 13 of culture was checked. The ratios of the proportions of GFP positive cells and Ngn3 positive cells when the ratio in the case of no addition is 1 are shown in FIG. 16C. […] The order of intensity of the effect was a), c), b) in descending order."}, "[5]": {"system": "differentiated ES cells", "assay": "Real time PCR of gene expression in differentiated ES cells", "format": "cell-based, mouse", "conditions": "TBZ 2.5 μM"}, "[6]": {"conditions": "0 to 10 μM added from d11, counted d17 (FIG. 14)"}}, "note": "Entries after “also recorded” stand apart in the source; their conditions may differ. Structures can show the parent of a compound that is named as a salt.", "data": [{"compound": "COC(=O)[C@H]1[C@H]2C[C@@H]3c4[nH]c5cc(OC)ccc5c4CCN3C[C@H]2C[C@@H](OC(=O)c2cc(OC)c(OC)c(OC)c2)[C@@H]1OC", "note": "[Reserpine, reserpine]", "values": [{"measurement": "hit confirmed by dose-responsiveness", "setting": "[1]; 0.08 to 10 μM, SK7 ES cells", "value": "positive"}, {"measurement": "effect on differentiation into insulin-expressing cells", "setting": "[1]", "value": "enhanced insulin-positive staining; also recorded: increased insulin-producing cells"}, {"measurement": "effect on differentiation into insulin-expressing cells", "setting": "[1]; listed as reserpine", "value": "concentration-dependent effect was observed"}, {"measurement": "concentration of maximum effect on insulin positive cells", "setting": "[1]; concentration-dependent test at 0 to 10 μM (FIG. 4)", "value": 0.63, "unit": "µM"}, {"measurement": "effect on Pdx1 positive pancreatic precursor cells", "setting": "[1]; reserpine 0.63 μM, Pargyline 1 μM (FIG. 6, 7)", "value": "did not change the number of pancreatic precursor cells"}, {"measurement": "promotion of differentiation into insulin-producing cells", "setting": "[2]", "value": "did not promote differentiation"}]}, {"compound": "COc1cc2c(cc1OC)C1CC(=O)C(CC(C)C)CN1CC2", "note": "(stereo not shown) [Tetrabenazine, tetrabenazine]", "values": [{"measurement": "effect on differentiation into insulin-expressing cells", "setting": "[1]", "value": "promoted the differentiation into insulin-expressing cells"}, {"measurement": "C-peptide content of GFP positive cells", "setting": "[3]", "value": "increased"}, {"measurement": "Ngn3 positive cells (fluorescence)", "setting": "[4]; TBZ 2.5 μM on days 9 to 13, observed day 13 (FIG. 16B)", "value": "increase of Ngn3 positive cells"}, {"measurement": "number of GFP positive cells", "setting": "[4]; TBZ 2.5 μM or dBu-cAMP 0.6 μM, addition days 9-11, 11-13 or 9-13, day 13 (FIG. 16C)", "value": "increased in all conditions"}, {"measurement": "expression of Abcc8", "setting": "[5]; dBu-cAMP 0.6 μM (FIG. 13)", "value": "did not increase"}, {"measurement": "expression of Glut2", "setting": "[5]; dBu-cAMP 0.6 μM (FIG. 13)", "value": "did not increase"}, {"measurement": "expression of MafA", "setting": "[5]; dBu-cAMP 0.6 μM (FIG. 13)", "value": "increased slightly"}, {"measurement": "expression of Stx1", "setting": "[5]; dBu-cAMP 0.6 μM (FIG. 13)", "value": "increased slightly"}, {"measurement": "expression level of MafA, time course", "setting": "[5]; dBu-cAMP 0.6 μM from day 11, after day 13 (FIG. 15)", "value": "promoted"}, {"measurement": "expression level of Nkx6.1", "setting": "[5]; dBu-cAMP 0.6 μM from day 11, after day 15 (FIG. 15)", "value": "strongly promoted"}, {"measurement": "expression level of Ngn3", "setting": "[5]; dBu-cAMP 0.6 μM from day 11, day 13 and day 15 (FIG. 15)", "value": "increased remarkably"}, {"measurement": "expression level of Insulin1", "setting": "[5]; dBu-cAMP 0.6 μM from day 11, single after day 13, both after day 15 (FIG. 15)", "value": "promoted"}]}, {"compound": "Cc1nccn1CC1CCc2c(c3ccccc3n2C)C1=O", "note": "(stereo not shown) [ondansetron hydrochloride]", "values": [{"measurement": "induction of the differentiation of stem cells into insulin-producing cells", "setting": "[1]", "value": "induce the differentiation of stem cells into insulin-producing cells"}]}, {"compound": "CCN(CC)CCCC(C)Nc1c2ccc(Cl)cc2nc2ccc(OC)cc12", "note": "(stereo not shown) [quinacrine dihydrochloride dihydrate]", "values": [{"measurement": "induction of the differentiation of stem cells into insulin-producing cells", "setting": "[1]", "value": "induce the differentiation of stem cells into insulin-producing cells"}]}, {"compound": "NCCc1c[nH]c2ccc(O)cc12", "note": "[serotonin]", "values": [{"measurement": "number of Pdx1/GFP positive cells", "setting": "[1]; [6]", "value": "did not vary"}, {"measurement": "number of insulin positive cells", "setting": "[1]; [6]", "value": "decreased in a concentration-dependent manner"}]}]}
